Entries after “also recorded” stand apart in the source; their conditions may differ. Like-named read-outs stand apart in the source and are kept apart here.
What was measured:
[1] = tested on: CD144 and CD31; test: Immunostaining for CD144 and CD31 and morphology of iPSC-ECs; format: cell-based, human; settings: ACS1028 and Y6 iPSC-ECs
Experimental: Immunostaining was performed by fixing cells in 4% paraformaldehyde for 15 minutes at room temperature and then washing with PBS. Cells were then permeabilized with 70% ice cold ethanol on ice and blocked with 0.5% BSA in PBS for 15 minutes at room temperature. Cells were then incubated overnight at 4° C. with the primary antibody in antibody dilution buffer (0.05% BSA in PBS) at the following concentrations: Nanog (Life Technologies PA1-097, 1:100), SSEA4 (Life Technologies 414000, 1:400), Sox2 (Life Technologies PA1-16968, 1:100), VE-cadherin/CD144 (Sigma V1514, 1:200), PECAM1/CD31 (Abcam ab187377, 1:100). The isotype control antibodies used in this study were mouse IgG1 (Abcam ab172730) and rabbit serum. Cells were washed with PBS and incubated with conjugated secondary antibodies at room temperature in the dark (Life Technologies, 1:300).

[2] = tested on: ACS1028-derived ECs; test: Mitophagy inducing drug experiment, cell number by total Hoechst signal; settings: all concentrations, by passage 1
Experimental: (§4) The effect of increasing mitophagy in iPSC-ECs was evaluated.

[3] = tested on: Y6-derived ECs; test: as above; settings: all concentrations, by passage 1
Experimental: as §4

[4] = tested on: ACS1028-ECs; test: Cell survival of purified iPSC-ECs by light microscopy cell counting / Trypan blue; format: cell-based; settings: for cell survival: serial passaging
Experimental: There were three biological replicates for each group in each experiment, unless otherwise specified. For MitoTracker quantification, total fluorescence signal for the area was measured in Fiji and divided by the number of nuclei present. This was done for 5 fields of view (technical replicates) and averaged to generate a data point for a given biological replicate. For the DAF-FM reduction measurements for NO production, a given experimental condition was plated into 3 wells of a 96 well plate. For TEM analysis, each biological sample was imaged in a minimum of 5 locations. Three representative images from each condition were utilized for quantifying autolysosomes per high power field (HPF) in each of two separate experiments. For light microscopy images, cells were manually counted from three distinct areas of a given experimental condition on two separate occasions. All data wereanalyzed with one-way ANOVA with a post-hoc Tukey test in IBM SPSS Statistics for Macintosh, version 27 (IBM Corp., Armonk, N.Y., USA). A p value of <0.05 was considered significant, where * represent comparisons between the specified groups.
(§1) Experiments were conducted to determine whether inducing autophagy in iPSC-ECs overcomes the premature senescence phenomenon. […] Due to the loss of proliferating cells in the control culture, the experiment was terminated at passage 3.
(§2) To assess whether the effect of Rg2 on proliferation is mediated through autophagy, ACS1028-ECs was administered with 200 μM Rg2 and SBI-0206965 to block ULK1 kinase at varying concentrations. Cell survival was assessed by counting the number of cells per high power field by light microscopy, which diminished over serial passages in the DMSO-treated vehicle-control condition.

[5] = tested on: LC3-II; test: Western blotting of LC3-II (normalized to GAPDH) in ACS1028-EC lysate; format: cell-based, human; settings: ACS1028-ECs
Experimental: Western blotting was performed using a modified Novus Biological protocol (NB100-2220) with 10%, 12%, 14% or 4-20% gradient SDS-PAGE gels. Cells were collected and lysed with RIPA buffer plus PMSF protease inhibitor. Cell lysate was centrifuged at high speed for 10 minutes at 4° C., and the supernatant was transferred to a fresh tube. The total protein content was quantified with a Bradford assay, and a total of 20 ug of protein was mixed with Laemmli buffer (4% SDS, 5% 2-mercaptoethanol (BME), 20% glycerol, 0.004% bromophenol blue, 0.125 M Tris HCl, pH 6.8) and denatured for 10 minutes at 95° C. This was followed by wet transfer to PVDF immobilon membrane (Millipore IPFL00010) and blocked with Odyssey TBS blocking buffer (LiCor 927-50000). […] Bands were quantified and normalized by a ratio of LC3-II:GAPDH, rather than LC3-II:LC3-I as LC3-II is more sensitive in blotting and accurate observed alone.
as §2

[6] = tested on: PDH; test: Western blotting, PDH expression in iPSC-ECs; format: cell-based, human; settings: particularly under bafilomycin treated conditions
Source text: (§3) Milk solution was removed, and membranes rinsed in TBST. […] ECL was applied for chemiluminescence. Imaging was done using Bio-Rad imager.

[7] = tested on: Parkin; test: Western blotting, Parkin expression in iPSC-ECs; format: cell-based, human; settings: particularly under bafilomycin treated conditions
Source text: as §3

[8] = tested on: endothelial nitric oxide synthase; test: Western blotting, phosphorylation of endothelial nitric oxide synthase in iPSC-ECs; format: cell-based; settings: human iPSC-derived endothelial cells
Source text: as §3

[9] = tested on: cleaved caspase 3
Experimental: Utilizing 8%, 10%, and 14% polyacrylamide gels, samples were run at 150V for 1 to 2 hours in SDS-Tris-Glycine buffer. Gels were then transferred to nitrocellulose membrane for two and half hours at 0.35 Amps in Tris-Glycine transfer buffer. After transfer nitrocellulose membranes were blocked in 10% milk/TBST solution for 1 hr. Milk solution was removed, and membranes rinsed in TBST. Blocked membranes were cut and placed in primary antibody solution (5% BSA/TBST) overnight. After incubation with primary antibody incubation membranes were washed with TBST for 5 mins 3X. Secondary antibody incubation (Rabbit 1:1000) in 5% BSA solution was applied for 2 hrs. After secondary antibody incubation membranes were washed with TBST for 15 mins 3X. ECL was applied for chemiluminescence. Imaging was done using Bio-Rad imager.

[10] = tested on: PKM2; test: Western blotting, phosphorylation of PKM2 in iPSC-ECs; format: cell-based, human; settings: particularly under bafilomycin treated conditions
Source text: as §3

[11] = tested on: Opal; test: Western blotting, Opal expression in iPSC-ECs; format: cell-based; settings: human iPSC-derived endothelial cells
Source text: as §3

[12] = tested on: ACS1028-ECs; test: Cell proliferation assay (EdU labeling) of iPSC-ECs over serial passages; format: cell-based, human
Experimental: Proliferating cells were labeled with EdU using the Invitrogen Click-iT microplate assay kit (Invitrogen C10214), without the use of the Amplex Ultra red step. Cells were labeled for 24 hours with 10 μM EdU or DMSO as a vehicle control. Cells were fixed and prepared according to the manufacturer's instructions, minus the Amplex Ultra red labeling. Hoechst 33342 was added at 5 μg/mL (Invitrogen H1399), and labeled cells were imaged on a Zeiss inverted fluorescence microscope. Four tiled images at 10× magnification were collected per each well of 3 biological replicates per condition and stitched together as a single image per well for analysis. EdU-labeled and total nuclei were counted in Fiji.
as §1

[13] = tested on: Drp1; test: Western blotting, phosphorylation of Drp1 in iPSC-ECs; format: cell-based; settings: human iPSC-derived endothelial cells
Source text: as §3

[14] = tested on: SIRT1; test: Western blotting, SIRT1 expression in iPSC-ECs; format: cell-based; settings: human iPSC-derived endothelial cells
Source text: as §3

For Antimycin A, the “CD144 and CD31 expression and typical morphology (mature endothelial cell phenotype)” value [1] was “accelerated the loss of CD144 and CD31 as well as typical morphology”, the “cell loss / cell survival (total Hoechst signal)” value (“cell loss / cell survival” below) [2] was “high levels of cell loss; also recorded: decreased cell survival” and the “cell survival (total Hoechst signal)” value [3] was “decreased cell survival”.
`N=c1c2c(-c3ccccc3)c(-c3ccccc3)n(Cc3ccccc3)c2ncn1[C@H]1CC[C@H](O)CC1` [ML246] was tested, and the “presence of cells by light microscopy” value [4] was “no cells visible” and the “residual cells, Trypan blue” value [4] was “no residual cells”.
With `N#CC(C#N)=NNc1ccc(OC(F)(F)F)cc1` [FCCP] the “CD144 and CD31 expression and typical morphology (mature endothelial cell phenotype)” value [1] was “accelerated loss of mature endothelial cell phenotype” and the “cell loss / cell survival” value [2] was “high levels of cell loss”.
In the case of `CNC(=O)c1ccccc1Oc1nc(Nc2cc(OC)c(OC)c(OC)c2)ncc1Br` [SBI-0206965], the “LC3-II level by Western blotting, co-treatment with Rg2” value ([5]; passage 3, SBI-0206965 at any concentration added to Rg2) is reported as “reduced”, the “presence of cells by light microscopy” value [4] is reported as “no cells visible” and the “residual cells, Trypan blue” value [4] is reported as “no residual cells”. For the same compound, the “cell survival (cells per high power field), co-treatment with Rg2” value ([4]; 10 μM (highest concentration) in the presence of 200 μM Rg2, passages 2 and 3) was “almost no surviving cells”, the cell survival ([4]; purified ACS1028-ECs) was “no cells surviving to passage 1” and the “cell survival (cells per high power field), co-treatment with Rg2” value ([4]; varying concentrations of SBI-0206965 in the presence of 200 μM Rg2, survival to passage 3) was “fewer cells surviving when treated with higher concentrations; also recorded: statistically significant reduction in cell survival in a dose-dependent manner”.
With `CC[C@H]1/C=C/C=C/C[C@@H](C)[C@H](O)[C@@](C)(O)C(=O)[C@@H](C)[C@H](O)[C@@H](C)C(=O)[C@@H](C)[C@H](O)[C@@H](C)/C=C/C(=O)O[C@@H]2[C@H](C)[C@H](CC1)O[C@]1(CC[C@H](C)[C@H](C[C@@H](C)O)O1)[C@H]2C` [oligomycin] the “CD144 and CD31 expression and typical morphology (mature endothelial cell phenotype)” value [1] was “accelerated the loss of CD144 and CD31 as well as typical morphology”, the “cell loss / cell survival” value [2] was “high levels of cell loss; also recorded: decreased cell survival” and the “cell survival (total Hoechst signal)” value [3] was “decreased cell survival”.
`Oc1ccc(C=Cc2cc(O)cc(O)c2)cc1` [resveratrol] was tested, and the “presence of cells by light microscopy” value [4] was “no cells visible”, the “residual cells, Trypan blue” value [4] was “no residual cells” and the cell survival ([4]; purified ACS1028-ECs) was “no cells surviving to passage 1”.
`NCCCCNCCCN` [spermidine] was tested, and the “residual cells, Trypan blue” value ([4]; purified ACS1028-ECs incubated overnight with Trypan blue) was “no residual cells” and the “presence of cells by light microscopy” value ([4]; purified ACS1028-ECs, versus control and DMSO-vehicle control) was “no cells visible”.
For `CC(C)=CCC[C@](C)(O)[C@H]1CC[C@]2(C)[C@@H]1[C@H](O)C[C@@H]1[C@@]3(C)CC[C@H](O)C(C)(C)[C@@H]3[C@@H](O[C@@H]3O[C@H](CO)[C@@H](O)[C@H](O)[C@H]3O[C@@H]3O[C@@H](C)[C@H](O)[C@@H](O)[C@H]3O)C[C@]12C` [Rg2], the “expression of PDH” value [6] was “increased”, the “LC3-II level by Western blotting” value ([5]; passage 3, Rg2 treated vs DMSO) was “increase in LC3-II level” and the “Parkin (mitophagy marker) expression” value [7] was “increased Parkin expression; also recorded: slightly increases”. The “phosphorylation (activity) of endothelial nitric oxide synthase” value [8] was “increased phosphorylation”, the “apoptosis (cleaved caspase 3)” value [9] was “no increase in cleaved caspase 3” and the “phosphorylation of PKM2” value [10] was “increased phosphorylation of PKM2”. The “expression of Opal (mitochondrial fusion)” value [11] was “increased”, the cell survival ([4]; purified ACS1028-ECs) was “improved cell survival” and the “persistence of the proliferation benefit over serial passages” value ([12]; serial passages, experiment terminated at passage 3) was “persisted through passage 3; also recorded: sustained through passage 3”. For the same compound, the “proliferation (EdU labeled cells)” value ([12]; versus DMSO vehicle control and rapamycin, ML246, Antimycin A or oligomycin) was “increased rate of proliferation; also recorded: statistically significant improvement in proliferation”, the “phosphorylation of Drp1 (mitochondrial fission)” value [13] was “increased phosphorylation of Drp1” and the SIRT1 expression [14] was “increased expression of longevity protein SIRT1 in a dose-dependent manner”.

Source: US20240010992A1, “COMPOSITIONS AND METHODS TO IMPROVE IPSC-EC FUNCTION” (Northwestem University, priority 2022, published 2024)
